# Test results as given in patent US9139585B2 (Merck Sharp & Dohme Corp., priority 2011, dated 2015).
# Where two headings read alike, the source gives them in different places.
# Assays:
# Kir1.1 (ROMK1) = Kir1.1 (ROMK1) (Homo sapiens (Human), UniProt P48048); test: Electrophysiology Assay (whole cell voltage clamp, IonWorks Quattro); assay type: cell-based
# Text: Several assays may be used to measure functional inhibition of the ROMK channel by compounds of the instant invention. One assay that can be used is an electrophysiology assay that measures the electrical current that is generated as potassium permeates through the channel.
# Block of Kir1.1 (ROMK1) currents was examined by whole cell voltage clamp (Hamill et. al. Pfluegers Archives 391:85-100 (1981)) using the IonWorks® Quattro automated electrophysiology platform (Molecular Devices, Sunnyvale, Calif.). Chinese hamster ovary cells stably expressing Kir1.1 channels were maintained in T-75 flasks in cell culture media in a humidified 10% CO2 incubator at 37° C. Prior to an experiment, Kir1.1 expression was induced by overnight incubation with 1 mM sodium butyrate. On the day of the experiment, cells were dissociated with 2.5 ml of Versene™ (Invitrogen 15040-066) for approximately 6 minutes at 37° C. and suspended in 10 ml of bath solution containing (in mM): 150 NaCl, 10 KCl, 2.7 CaCl2, 0.5 MgCl2, 5 HEPES, pH 7.4. After centrifugation, the cell pellet was resuspended in approximately 4.0 ml of bath solution and placed in the IonWorks® instrument. The intracellular solution consisted of (in mM): 80 K gluconate, 40 KCl, 20 KF, 3.2 MgCl2, 3 EGTA, 5 Hepes, pH 7.4. Electrical access to the cytoplasm was achieved by perforation in 0.13 mg/ml amphotericin B for 4 minutes. Amphotericin B (Sigma A-4888) was prepared as a 40 mg/ml solution in DMSO.
# Voltage protocols and current recordings were performed using the IonWorks® HT software/hardware system. Currents were sampled at 1 kHz. No correction for liquid junction potentials was used. The test pulse, consisting of a 100 ms step to 0 mV from a holding potential of −70 mV, followed by a 100 ms voltage ramp from −70 mV to +70 mV, was applied before and after a 6 minutes compound incubation period. Test compounds were prepared by diluting DMSO stock solutions into the bath solution at 3× the final concentration and placed in the instrument in 96-well polypropylene plates. Current amplitudes were measured using the IonWorks® software. To assess compound potency, the fractional block during the voltage step to 0 mV was calculated in Microsoft® Excel (Microsoft, Redmond, Calif.), and dose-response curves were fitted with Igor Pro 4.0 (WaveMetrics, Lake Oswego, Oreg.).
# hROMK (hKir1.1) = hROMK (hKir1.1) (Homo sapiens (Human), UniProt P48048); test: Thallium Flux Assay (ROMK channel functional thallium flux, FLIPR-Tetra); assay type: cell-based
# Protocol: Another ROMK functional assay makes use of the ability of thallium to permeate through open ROMK channels and increase the fluorescence of a dye previously loaded into the cells. Under control conditions, cells loaded with dye and exposed to thallium-containing medium display a time-dependent increase in fluorescence, the rate of which depends on number of functional channels. When cells are incubated in the presence of a channel inhibitor, the increase in fluorescence is attenuated in a concentration-dependent manner, and IC50 values of inhibition by compounds can be accurately determined. This assay has been established with cell lines expressing either human, or rat ROMK channels, and operates in 384-well format.
# HEK293 cells stably expressing hROMK (hKir1.1) were grown at 37° C. in a 10% CO2 humidified incubator in complete growth media: Dulbecco's Modified Eagle Medium supplemented with non-essential amino acids, Penicillin/Streptomycin/Glutamine, G418 and FBS. At >80% confluency, the media was aspirated from the flask and the sample was rinsed with 10 ml Calcium/Magnesium-free PBS. […] To dislodge the cell, the side of the flask was gently banged with a hand. The cells were triturated completely and then transferred to 25 ml complete media. The sample was then centrifuged at 1,500 rpm for 6 minutes, followed by resuspension in complete growth media and then cell concentration was determined. […] Under ideal growth conditions and appropriate tissue culture practices, this cell line is stable for 40-45 passages.
# FluxOR Kit Components (Invitrogen F10017)
# • FluxOR™ Reagent (Component A) • FluxOR™ Assay Buffer (Component B)—10× Concentrate • PowerLoad™ Concentrate (Component C)—100× Concentrate • Probenecid (Component D)—Lyophilized sample is kept at −20° C. Water soluble, 100× after solubilization in 1 ml water. […] Store at 4° C. • Thallium sulfate (Tl2SO4) Concentrate (Component G)—50 mM in water. Store at 4° C. • DMSO (dimethyl sulfoxide, Component H)—1 ml (100%) Reagent Preparation— FluxOR Working Solutions • 1000× FluxOR™ Reagent: Reconstitute a vial of component A in 100 μl DMSO; Mix well; Store 10 μl aliquots at −20° C. • 1× FluxOR™ Assay Buffer: Dilute Component B 10-fold with water; Adjust pH to 7.4 with Hepes/NaOH; Filter and store at 4° C. • Probenecid/Assay Buffer: 100 ml of 1× FluxOR™ Assay Buffer; 1 ml of reconstituted component D; Store at 4° C. • Loading Buffer (per microplate): 10 μl 1000× FluxOR™ Reagent; 100 μl component C; 10 ml Probenecid/Assay Buffer • Compound Buffer (per microplate): 20 ml Probenecid/Assay Buffer; 0.3 mM ouabain (10 mM ouabain in water can be stored in amber bottle/aluminum foil at room temperature);
# Test compound • 1× FluxOR™ Chloride-Free Buffer: Prepare 1× working solution in water. Can be stored at room temperature • Stimulant Buffer (prepared at 5× final concentration in 1× FluxOR™ Chloride-Free Buffer): 7.5 mM Thallium sulfate and 0.75 mM Potassium sulfate (to give a final assay concentration of 3 mM Thallium/0.3 mM Potassium). Store at 4° C. when not in use. If kept sterile, this solution is good for months. Assay Protocol—
# The ROMK channel functional thallium flux assay is performed in 384 wells, using the FLIPR-Tetra instrument. HEK-hKir1.1 cells are seeded in Poly-D-Lysine microplates and kept in a 37° C.-10% CO2 incubator overnight. On the day of the experiment, the growth media is replaced with the FluxOR™ reagent loading buffer and incubated, protected from light, at ambient temperature (23-25° C.) for 90 min. The loading buffer is replaced with assay buffer±test compound followed by 30 min incubation at ambient temperature, where the Thallium/Potassium stimulant is added to the microplate.
# • 1. Seed HEK-hKir1.1 cells (50 μl at 20,000 cells/well) in 384-well PDL coated Microplates • 2. Allow cells to adhere overnight in humidified 37° C./10% CO2 incubator • 3. Completely remove cell growth media from microplate and replace with 25 μl loading buffer • 4.
# [1] = Chinese hamster ovary cells stably expressing Kir1.1, block during voltage step to 0 mV, read-out: EP Assay IC50
# [2] = HEK293 cells stably expressing hROMK (hKir1.1), read-out: Thallium Flux Assay IC50
# Chain of Kir1.1 (ROMK1) (P48048 whole entry, species assumed): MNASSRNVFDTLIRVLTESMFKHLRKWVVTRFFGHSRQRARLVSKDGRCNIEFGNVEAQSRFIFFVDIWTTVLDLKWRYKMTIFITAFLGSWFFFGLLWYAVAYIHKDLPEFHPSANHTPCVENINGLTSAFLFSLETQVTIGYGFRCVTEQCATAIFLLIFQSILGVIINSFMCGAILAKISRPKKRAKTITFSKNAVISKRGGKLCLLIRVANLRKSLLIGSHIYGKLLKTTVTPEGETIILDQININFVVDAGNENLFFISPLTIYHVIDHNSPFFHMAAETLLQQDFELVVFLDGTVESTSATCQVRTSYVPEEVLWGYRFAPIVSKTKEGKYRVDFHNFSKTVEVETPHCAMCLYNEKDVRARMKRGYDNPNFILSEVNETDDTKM
# Chain of hROMK (hKir1.1) (P48048 whole entry): as the sequence (P48048 whole entry, species assumed) above
Structure (SMILES),IC50 (Kir1.1 (ROMK1); [1]),IC50 (hROMK (hKir1.1); [2]),other results
"Cc1c([C@@H](O)CN2CCN(C[C@H](O)c3ccc4c(c3)C[C@@H](C)OC4=O)CC2)ccc2c1COC2=O (single isomer, unassigned) [Example 38A]",17.5 nM,68.5 nM,
"Cc1c([C@@H](O)CN2CCN(CC(O)c3ccc(-n4cnnn4)nc3)CC2)ccc2c1COC2=O (single isomer, unassigned) [Example 34B]",,,IC50 (Kir1.1 (ROMK1); read-out: EP Assay IC50): 14 nM; IC50 (hROMK (hKir1.1); read-out: Thallium Flux Assay IC50): 147 nM
"COc1cc(C(O)CN2C3COCC2CN(C[C@H](O)c2ccc4c(c2C)COC4=O)C3)ncc1C#N (stereo in doubt) [Example 25, (R)-6-(1-Hydroxy-2-(7-(2-hydroxy-2-(4-methyl-1-oxo-1,3-dihydroisobenzofuran-5-yl)ethyl)-3-oxa-7,9 diazabicyclo[3.3.1]nonan-9-yl)ethyl)-4-methoxynicotinonitrile]",,20.5 nM,IC50 (Kir1.1 (ROMK1); read-out: EP Assay IC50): 110 nM
"Cc1c([C@@H](O)CN2[C@@H]3CC[C@H]2CN(C(=O)c2ccc(-n4cnnn4)nc2)C3)ccc2c1COC2=O [Example 12, 5-((R)-2-((1R,5S)-3-(6-(1H-Tetrazol-1-yl)nicotinoyl)-3,8-diazabicyclo[3.2.1]octan-8-yl)-1-hydroxyethyl)-4-methylisobenzofuran-1 (3H)-one]",140 nM,342 nM,
"Cc1c([C@@H](O)CN2CCN(C[C@H](O)c3ccc4c(c3C)COC4=O)C(C)(C)C2)ccc2c1COC2=O [Example 2, 5,5′-{(2,2-dimethylpiperazine-1,4-diyl)bis[(1R)-1-hydroxyethane-2,1-diyl]}bis(4-methyl-2-benzofuran-1(3H)-one)]",41 nM,113 nM,
"Cc1c([C@@H](O)CN2CCN(CCc3ccc4c(c3)C[C@@H](C)OC4=O)CC2)ccc2c1COC2=O [Example 28, 4-[(2R)-2-Hydroxy-2-(4-methyl-1-oxo-1,3-dihydro-2-benzofuran-5-yl)ethyl]-1-{2-[(3R)-3-methyl-1-oxo-3,4-dihydro-1H-isochromen-6-yl]ethyl}piperazine]",33 nM,22 nM,
"Cc1c([C@@H](O)CN2CC3COCC(C2)N3C[C@H](O)c2ccc3c(c2C)COC3=O)ccc2c1COC2=O [Example 18, 5,5′-(1R,1′R)-2,2′-(3-Oxa-7,9-diazabicyclo[3.3.1]nonane-7,9-diyl)bis(1-hydroxyethane-2,1-diyl)bis(4-methylisobenzofuran-1(3H)-one)]",30 nM,30.8 nM,
"CCc1c(C(O)CN2CCN(CCc3ccc4c(c3)CCOC4=O)CC2)ccc2c1COC2=O (centres unmarked) [Example 32, 6-(2-(4-(2-(4-Ethyl-1-oxo-1,3-dihydroisobenzofuran-5-yl)-2-hydroxyethyl)piperazin-1-yl)ethyl)isochroman-1-one]",46 nM,71 nM,
"Cc1c([C@@H](O)CN2CCN(C[C@H](O)c3ccc4c(c3)C[C@H](C)OC4=O)CC2)ccc2c1COC2=O (single isomer, unassigned) [Example 37A]",71 nM,685 nM,
"Cc1nc(-n2cnnn2)ccc1[C@@H](O)CN1CCN(C[C@H](O)c2ccc3c(c2C)COC3=O)CC1 (single isomer, unassigned) [Example 36A]",55 nM,441 nM,
"Cc1c([C@@H](O)CN2CCN(c3ccc(C#N)cn3)CC2)ccc2c1COC2=O [Example 11, (R)-6-(4-(2-Hydroxy-2-(4-methyl-1-oxo-1,3-dihydroisobenzofuran-5-yl)ethyl)piperazin-1-yl)nicotinonitrile]",54 nM,743 nM,
"Cc1c([C@@H](O)CN2C3COCC2CN(CC(O)c2ccc4c(c2)C[C@H](C)OC4=O)C3)ccc2c1COC2=O (single isomer, unassigned) [Example 23B]",,,IC50 (Kir1.1 (ROMK1)): 64 nM; IC50 (hROMK (hKir1.1); Thallium Flux Assay IC50): 40.5 nM
"COc1cc(C(O)CN2C3COCC2CN(C[C@H](O)c2ccc4c(c2C)COC4=O)C3)ncc1C#N (stereo in doubt) [Example 26, (R)-6-(1-Hydroxy-2-(7-(2-hydroxy-2-(4-methyl-1-oxo-1,3-dihydroisobenzofuran-5-yl)ethyl)-3-oxa-7,9 diazabicyclo[3.3.1]nonan-9-yl)ethyl)-4-methoxynicotinonitrile]",,49.2 nM,IC50 (Kir1.1 (ROMK1); read-out: EP Assay IC50): 71 nM
"Cc1c([C@@H](O)CN2CCN(C[C@H](O)c3ccc4c(c3)C[C@H](C)OC4=O)CC2)ccc2c1COC2=O (single isomer, unassigned) [Example 37B]",31.5 nM,48.5 nM,
"Cc1c([C@@H](O)CN2C3COCC2CN(CCc2ccc4c(c2)C[C@@H](C)OC4=O)C3)ccc2c1COC2=O [Example 21, (R)-6-(2-(9-((R)-2-Hydroxy-2-(4-methyl-1-oxo-1,3-dihydroisobenzofuran-5-yl)ethyl)-3-oxa-7,9-diazabicyclo[3.3.1]nonan-7-yl)ethyl)-3-methylisochroman-1-one]",,,IC50 (Kir1.1 (ROMK1); read-out: EP Assay IC50): 45 nM; IC50 (hROMK (hKir1.1); Thallium Flux Assay IC50): 36 nM
"COc1cc(C(O)CN2C3CCC2C2CCC3N2C[C@H](O)c2ccc3c(c2C)COC3=O)ncc1C#N (single isomer, unassigned) [Example 9]",23 nM,23 nM,
"Cc1c([C@@H](O)CN2CC3CCC2CN3S(=O)(=O)c2ccc(-n3cnnn3)cc2)ccc2c1COC2=O (single isomer, unassigned) [Example 17A]",170 nM,508 nM,
"Cc1c([C@@H](O)CN2CCN(C[C@H](O)c3ccc4c(c3)C[C@@H](C)OC4=O)CC2)ccc2c1COC2=O (single isomer, unassigned) [Example 38B]",29 nM,33.4 nM,
"O=C1OCCc2cc(CCN3CCN(CC(O)c4ccc5c(c4C(F)(F)F)COC5=O)CC3)ccc21 (centres unmarked) [Example 33, 6-(2-(4-(2-Hydroxy-2-(1-oxo-4-(trifluoromethyl)-1,3-dihydroisobenzofuran-5-yl)ethyl)piperazin-1-yl)ethyl)isochroman-1-one]",38 nM,293 nM,
